Results reported in PMC12113342, “Identification of TRPV1-Inhibitory Peptides from Takifugu fasciatus Skin Hydrolysate and Their Skin-Soothing Mechanisms” (Marine Drugs, 2025).
“And” between values parts separate entries of the source, which are not always exact repeats. Equal values may be shown once.

Columns and labels:
RAW 264.7 cells = assay: MTS cytotoxicity assay in RAW 264.7 cells; assay type: cell-based; details: 800 μM peptide
From the text: (§1) The 20 peptides with the top scores were selected and entrusted to Nanjing GenScript Biotechnology Co., Ltd., with synthetic sample purity > 95%. The process was as follows: Select the appropriate resin, pretreat it with solvent, remove the resin protective group, and expose the active site. The first protective amino acid is activated and coupled to the resin, and the amino protecting group of the amino acid is removed after washing. Repeat the “Activation–Conjugation–Deprotection” step and gradually add amino acids to lengthen the peptide chain. The peptide is cleaved from the resin with reagents such as TFA while the side-chain guard group is removed. Peptides are precipitated, washed, purified by HPLC, and identified by mass spectrometry. RAW 264.7 cells were purchased from Peking Union Medical College. The cytotoxicity of 20 candidate peptides towards RAW 264.7 cells is evaluated in an MTS assay (Promega, Madison, WI, USA), adapted from reference with modifications. RAW 264.7 cells are maintained in Dulbecco’s Modified Eagle Medium (DMEM, C11995500BT, Gibco, Grand Island, NY, USA) supplemented with 10% fetal bovine serum (F8687, Merck, Darmstadt, Germany) and 1% penicillin-streptomycin (C0222, Beyotime, Shanghai, China) at 37 °C under 5% CO2. […] NO production is measured using a NO detection kit (G2930, Promega) following the manufacturer’s protocol.

[1] = system: NF-κB p65 in CAP-induced HaCaT cells; assay: Western blot of NF-κB p65 in CAP-induced HaCaT cells; assay type: cell-based; details: varying concentrations of T14 6 h pretreatment, CAP 24 h, total cellular protein
Description: Adapted from a previous study with modifications, HaCaT cells were seeded into 6-well plates at a density of 2.0 × 10^5 CFU/mL and cultured for 8–12 h. Cells were pretreated with varying concentrations of T14 for 6 h, followed by co-stimulation with CAP for 24 h. After washing with Dulbecco’s phosphate-buffered saline, the cells were lysed on ice for 1 h using RIPA Lysis Buffer (R0010, Solarbio). Lysates were centrifuged at 12,000× g for 30 min at 4 °C, and the supernatants were collected. Protein concentrations were quantified using a BCA assay and normalized. Loading buffer (P1016, Solarbio) was added at a 1:3 ratio, and the samples were denatured at 95 °C for 5 min using a heat block before being stored at −20 °C.
Proteins (10 μL/lane) were resolved via sodium dodecyl sulfate-polyacrylamide gel electrophoresis and transferred onto polyvinylidene fluoride membranes. Membranes were blocked with 5% skim milk in Tris-buffered saline containing 0.1% Tween-20 for 2 h at room temperature. Primary antibodies against NF-κB p65 (8242T, Cell Signaling Technology, Danvers, MA, USA) and GAPDH (CL594-6004, Abclonal, Wuhan, China) were diluted according to the manufacturer’s guidelines and incubated overnight at 4 °C. […] Band intensities were quantified using ImageJ software.

[2] = system: ICAM-1 in LPS-induced HUVECs; assay: ICAM-1 ELISA in LPS-induced HUVECs; assay type: cell-based, human; details: LPS 10 μg/mL 24 h; for ICAM-1 inhibition rate: (LPS − peptide)/(LPS − control); for ICAM-1 level: control 0.43, LPS 0.57 pg/mL
Description: (§2) HUVEC cell were purchased from Peking Union Medical College. HUVECS were cultured according to protocols provided by the Peking Union Medical College Cell Bank. Cells were maintained in DMEM supplemented with 10% fetal bovine serum, 1% penicillin-streptomycin, 1% GlutaMAX™ (25030149, Gibco), 1% non-essential amino acids (N1250, Solarbio), and 2% sodium pyruvate (11360070, Gibco) at 37 °C under 5% CO2. Cells in the logarithmic growth phase were seeded into 24-well plates at 2 × 10^5 CFU/mL and incubated overnight. After supernatant removal, the cells were pretreated with varying concentrations of T14 peptide (50, 100, 200, 400 μM) for 6 h, followed by co-stimulation with LPS (10 μg/mL) for 24 h. Cell culture supernatants were collected, and the expression levels of ET-1 and ICAM-1 were quantified using ELISA kits (E-EL-H0064 for ET-1, E-EL-H6114 for ICAM-1; Procell, Wuhan, China) according to the manufacturer’s instructions. The inhibition rate was calculated using the following formula:Inhibition rate (%) = (LPS − peptide)/(LPS − control) × 100%

[3] = system: LPS-induced RAW 264.7 cells; assay: NO production in LPS-induced RAW 264.7 cells; assay type: cell-based; details: 200 μM peptide, 2 h pretreatment, then LPS (1 μg/mL) 24 h; vs LPS-treated group
From the text: as §1

[4] = system: LPS-induced RAW 264.7 cells; assay: Mouse cytokine array of LPS-induced RAW 264.7 cell supernatants; assay type: cell-based; details: T14 200 μM 6 h pretreatment, LPS 24 h; vs LPS group
Description: The expression levels of 40 cytokines and chemokines in RAW 264.7 cell culture supernatants were analyzed using the Proteome Profiler™ Mouse Cytokine Array Panel A (ARY006, R&D Systems, Minneapolis, MN, USA) following the manufacturer’s protocol. Supernatants from treated groups were collected, and 300 μL per sample was used for each array. All reagents were equilibrated to room temperature (26 ± 0.5 °C) prior to use. The array membrane was blocked with blocking buffer for 2 h at room temperature. During blocking, the detection antibody cocktail was mixed with the cell supernatant and incubated at room temperature for 1 h. The mixture was then transferred to the blocked membrane and incubated overnight at 4 °C. Post-incubation, the membrane was washed three times with wash buffer (≥10 min per wash). Horseradish peroxidase-conjugated streptavidin was added, and the membrane was incubated for 2 h at room temperature. After thorough washing, a chemiluminescent substrate was applied, and signals were captured using a chemiluminescence imaging system. The array images were analyzed using ImageJ software to quantify the integrated optical density.

[5] = system: TRPV1-mediated Ca2+ influx in CAP-induced HaCaT cells; assay: Capsaicin-induced Ca2+ influx in HaCaT cells (Fluo-4AM fluorescence); assay type: cell-based; details: 200 μM peptide, 24 h pretreatment, CAP-stimulated HaCaT cells
Description: HaCaT cells were purchased from the Kunming Cell Bank, Chinese Academy of Sciences. Adapted from a previous study with modifications, HaCaT cells were cultured in DMEM supplemented with 10% fetal bovine serum and 1% penicillin-streptomycin at 37 °C under 5% CO2. Cells in the logarithmic growth phase were harvested and adjusted to a density of 1 × 10^5 CFU/mL. Cell suspensions (100 μL/well) were seeded into 96-well plates and incubated for 8–12 h. After removing the supernatant, the cells were treated with T10, T14, or T18 peptide solutions (200 μM) for 2, 6, 12, or 24 h, followed by stimulation with 100 μL CAP (IC0060, Solarbio) per well. Untreated cells served as blank controls. Intracellular Ca^2+ levels were quantified using a calcium ion assay kit (S1061S; Beyotime) according to the manufacturer’s protocol. Fluorescence images were captured using an inverted fluorescence microscope and analyzed using ImageJ software (NIH, Bethesda, MD, USA) to calculate the average fluorescence intensity.

[6] = system: ET-1 in LPS-induced HUVECs; assay: ET-1 ELISA in LPS-induced HUVECs; assay type: cell-based, human; details: LPS 10 μg/mL 24 h; for ET-1 inhibition rate: (LPS − peptide)/(LPS − control)
Description: as §2

## LFIL [T9, hit peptide from T. fasciatus skin hydrolysate, made by solid-phase synthesis]
RAW 264.7 cells
  cell viability: proliferative effects

## IFDL [T5, hit peptide from T. fasciatus skin hydrolysate, made by solid-phase synthesis]
RAW 264.7 cells
  cell viability: proliferative effects

## LDIF [T14, hit peptide from T. fasciatus skin hydrolysate, made by solid-phase synthesis]
[1]
  p65 expression: markedly reduced p65 expression
[2]; 50 μM T14, 6 h pretreatment
  ICAM-1 inhibition rate: 20.65%
  ICAM-1 level: 0.54 pg/mL
[2]; 400 μM T14, 6 h pretreatment
  ICAM-1 inhibition rate: 49.0% and 48.96%
  ICAM-1 level: 0.50 pg/mL
[3]
  Inhibitory effect on NO production: significant inhibition
[4]
  TIMP-1 expression: markedly upregulated
  expression of G-CSF, GM-CSF, ICAM-1, IL-3, IL-6, IL-23 and TNF-α: significantly downregulated
  expression of M-CSF, IL-1α, IL-7, IL-13, IL-12P70, IL-16, IL-17, IL-27, CCL3, CCL4, CXCL2 and CCL5: moderate downward trend
[5]
  inhibition rate of Ca2+ fluorescence intensity: 73.1%
[6]; 100 μM T14, 6 h pretreatment
  ET-1 inhibition rate: 24.47%
[6]; 400 μM T14, 6 h pretreatment
  ET-1 inhibition rate: 75.0%
[6]; 400 μM T14, 6 h pretreatment, control 2.05, LPS 2.7 pg/mL
  ET-1 level: 2.2 pg/mL
